According to US7652020B2, “Compounds for the treatment of inflammatory disorders” (Schering Corporation, priority 2004, dated 2010):

Target: T1, purified catalytic domain of recombinant human TACE (rhTACEc) (Homo sapiens, UniProt P78536, N452Q/S266A)
T1 construct: Residue 215 to 477 with two mutation (S266A and N452Q) and a 6×His tail; 6xHis (C); made in house; host or cells: baculovirus/Hi5 insect cells
Assay: TACE kinetic assay: cleavage of internally quenched peptide substrate SPDL-3, fluorescence
Format: biochemical
Settings: TACE inhibitory activity, class symbols; read-out: Ki
Protocol: TACE activity is determined by a kinetic assay measuring the rate of increase in fluorescent intensity generated by TACE catalyzed cleavage of an internally quenched peptide substrate (SPDL-3). […] It is purified from the baculovirus/Hi5 cells expression system using affinity chromatography. […] MCA is (7-Methoxycoumarin-4-yl)acetyl. Dpa is N-3-(2,4-Dinitrophenyl)-L-2,3-diaminopropionyl.
A 50 μl assay mixture contains 20 mM HEPES, pH 7.3, 5 mM CaCl2, 100 μM ZnCl2, 2% DMSO, 0.04% Methylcellulose, 30 μM SPDL-3, 70 pM rhTACEc and a test compound. RhTACEc is pre-incubated with the testing compound for 90 min. at 25° C. Reaction is started by addition of the substrate. […] Rate of enzymatic reaction is shown as Units per second. Effect of a test compound is shown as % of TACE activity in the absence of the compound.

T1 sequence (P78536 215-477 S266A/N452Q): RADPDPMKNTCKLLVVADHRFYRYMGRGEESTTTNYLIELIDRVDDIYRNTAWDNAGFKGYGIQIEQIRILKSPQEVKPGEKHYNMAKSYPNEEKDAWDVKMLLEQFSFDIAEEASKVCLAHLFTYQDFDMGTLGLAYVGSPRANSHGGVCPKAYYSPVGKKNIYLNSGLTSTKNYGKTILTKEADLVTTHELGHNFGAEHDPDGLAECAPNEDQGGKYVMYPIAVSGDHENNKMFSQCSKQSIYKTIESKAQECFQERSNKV

Question: With C[C@@H](NC(=O)[C@H](O)[C@@H](O)C(=O)N1CC(C)(C)C[C@@]1(C)c1cccc(Cl)c1)c1ccc(-n2cccn2)cc1 [Compound 2239] as the molecule, how does the Ki read?
Answer: Its Ki is greater than 1000 nM.

Question: How did the Ki turn out when COc1cc([C@@H](C)NC(=O)[C@](C)(O)[C@@H](O)C(=O)N2Cc3cccnc3C2)ccc1Br [Compound 2356] was run?
Answer: Its Ki is greater than 1000 nM.

Question: With C[C@@H](NC(=O)[C@H](O)[C@@H](O)C(=O)N1CCc2cn[nH]c2C1)c1ccc(-n2cccn2)cc1 [Compound 2076] as the molecule, how does the Ki read?
Answer: Its Ki is 20 to 100 nM.

Question: Which Ki does the source give for C[C@](O)(C(=O)NCC1CCN(c2ccc(F)cc2C#N)CC1)[C@@H](O)C(=O)N1Cc2ccncc2C1 [Compound 2041] here?
Answer: The Ki was 20 to 100 nM.

Question: With CCCN(C(=O)[C@H](O)[C@@H](O)C(=O)N[C@H](C)c1ccc(-n2cccn2)cc1)C(C)c1cccc(Cl)c1 (stereo partly shown) [Compound 2486] as the molecule, how does the Ki read?
Answer: The Ki was greater than 1000 nM.

Question: Which Ki does the source give for C[C@@H](NC(=O)[C@H](O)[C@@H](O)C(=O)N1CCc2cc(Cl)ccc2C1c1ccccc1)c1ccc(-n2cccn2)cc1 (stereo partly shown) [Compound 2444] here?
Answer: The Ki was less than 20 nM.

Question: C[C@@H](NC(=O)[C@H](O)[C@@H](O)C(=O)N1CCCC1(C)c1nccs1)c1ccc(-n2cccn2)cc1 (stereo partly shown) [Compound 2251] was tested. Which Ki did it give?
Answer: The Ki was less than 20 nM.

Question: With N#Cc1cc(F)ccc1N1CCC(CNC(=O)[C@H](O)[C@@H](O)C(=O)N2Cc3ccncc3C2)CC1 [Compound 2007] as the molecule, how does the Ki read?
Answer: Its Ki is less than 20 nM.

Question: With N#Cc1cc(F)ccc1N1[C@@H]2CC[C@H]1CC(CNC(=O)[C@H](O)[C@@H](O)C(=O)N1CCC[C@@H]1c1ccccc1)C2 (stereo partly shown) [Compound 2148] as the molecule, how does the Ki read?
Answer: Its Ki is 100 to 1000 nM.

Question: Which Ki does the source give for O=C(NCC1CCN(c2ccc(F)cc2OCCC2CCCCC2)CC1)[C@H](O)[C@@H](O)C(=O)N1CCCC1 [Compound 2159] here?
Answer: Its Ki is 20 to 100 nM.

Question: With C[C@@H](NC(=O)[C@H](O)[C@@H](O)C(=O)N1CCc2ccccc2[C@@H]1c1csc(N)n1)c1ccc(-n2cccn2)cc1 [Compound 2585] as the molecule, how does the Ki read?
Answer: The Ki was less than 20 nM.

Question: C[C@@H](NC(=O)[C@H](O)[C@@H](O)C(=O)N1CCc2cccnc2C1)c1ccc(-n2cccn2)cc1 [Compound 2083] was tested. Which Ki did it give?
Answer: The Ki was 20 to 100 nM.

Question: With CC(C)Nc1nc([C@H]2c3ccccc3CN2C(=O)[C@H](O)[C@@H](O)C(=O)N[C@H](C)c2ccc(-n3cccn3)cc2)cs1 [Compound 2592] as the molecule, how does the Ki read?
Answer: The Ki was less than 20 nM.

Question: With O=C(NCC1CCN(c2ccccc2OC(F)(F)F)CC1)[C@H](O)[C@@H](O)C(=O)N1Cc2cccnc2C1 [Compound 2035] as the molecule, how does the Ki read?
Answer: Its Ki is less than 20 nM.

Question: Which Ki does the source give for N#Cc1cc(F)ccc1N1CCC(CNC(=O)[C@H](O)[C@@H](O)C(=O)N2Cc3cccnc3C2)CC1 [Compound 2003] here?
Answer: Its Ki is 20 to 100 nM.

Question: COc1nc(CNC(=O)[C@H](O)[C@@H](O)C(=O)N2CCCC2)ccc1-c1ccccc1OC(F)(F)F [Compound 2346] was tested. Which Ki did it give?
Answer: Its Ki is greater than 1000 nM.

Question: How did the Ki turn out when C[C@@H](NC(=O)[C@H](O)[C@@H](O)C(=O)N1CCNCC1)c1ccc(-n2cccn2)cc1 [Compound 2423] was run?
Answer: Its Ki is 100 to 1000 nM.

Question: For C[C@@H](NC(=O)[C@H](O)[C@@H](O)C(=O)N1CCc2nc(N)sc2C1)c1ccc(-n2cccn2)cc1 [Compound 2081], which Ki is on record?
Answer: Its Ki is less than 20 nM.

Question: For Cc1noc([C@H]2c3ccccc3CN2C(=O)[C@H](O)[C@@H](O)C(=O)N[C@H](C)c2ccc(-n3cccn3)cc2)n1 (stereo in doubt) [Compound 2528], which Ki is on record?
Answer: The Ki was less than 20 nM.

Question: CCC(c1cccc(Cl)c1)N(C)C(=O)[C@H](O)[C@@H](O)C(=O)N[C@H](C)c1ccc(-n2cccn2)cc1 (stereo partly shown) [Compound 2487] was tested. Which Ki did it give?
Answer: The Ki was 20 to 100 nM.

Question: How did the Ki turn out when CCNc1nc([C@@H]2c3ccccc3CN2C(=O)[C@H](O)[C@@H](O)C(=O)N[C@H](C)c2ccc(-n3cccn3)cc2)cs1 [Compound 2595] was run?
Answer: The Ki was less than 20 nM.

Question: Which Ki does the source give for C[C@H]1CN(c2ccccc2C#N)CCC1CNC(=O)[C@H](O)[C@@H](O)C(=O)N1Cc2ccccc2C1 (stereo partly shown) [Compound 2146] here?
Answer: Its Ki is 100 to 1000 nM.

Question: Cc1nc2c(s1)CN(C(=O)[C@H](O)[C@@H](O)C(=O)NCC1CCN(c3ccccc3C#N)CC1C)C2 (stereo partly shown) [Compound 2151] was tested. Which Ki did it give?
Answer: The Ki was less than 20 nM.

Question: With O=C(NCc1ccc(-c2ccccc2OCCN2CCOCC2)cc1)[C@H](O)[C@@H](O)C(=O)N1CCCC1 [Compound 2343] as the molecule, how does the Ki read?
Answer: The Ki was greater than 1000 nM.

Question: Which Ki does the source give for CC1(C)c2ccccc2CN1C(=O)[C@H](O)[C@@H](O)C(=O)NCC1CCN(c2ccccc2C#N)CC1 [Compound 2233] here?
Answer: The Ki was less than 20 nM.

Question: With O=C(NCC1CCN(c2ccccc2OC(F)(F)F)CC1)[C@H](O)[C@@H](O)C(=O)N1Cc2ccncc2C1 [Compound 2040] as the molecule, how does the Ki read?
Answer: The Ki was less than 20 nM.

Question: With CCOc1ncccc1-c1ccc(CNC(=O)[C@H](O)[C@@H](O)C(=O)N2CCCC2)cc1 [Compound 2335] as the molecule, how does the Ki read?
Answer: Its Ki is 100 to 1000 nM.

Question: How did the Ki turn out when CC(C)Nc1nc([C@@H]2c3ccc(Cl)cc3CCN2C(=O)[C@H](O)[C@@H](O)C(=O)N[C@H](C)c2ccc(-n3cccn3)cc2)cs1 [Compound 2590] was run?
Answer: The Ki was less than 20 nM.

Question: O=C(NC[C@H]1CC[C@@H](n2c(C(F)(F)F)nc3ccccc32)CC1)[C@H](O)[C@@H](O)C(=O)N1CCC[C@@H]1c1ccccc1 [Compound 2352] was tested. Which Ki did it give?
Answer: Its Ki is less than 20 nM.

Question: Which Ki does the source give for C[C@@H](NC(=O)[C@H](O)[C@@H](O)C(=O)N1CCC[C@@H]1c1csc(N(C)C)n1)c1ccc(-n2cccn2)cc1 [Compound 2260] here?
Answer: Its Ki is 20 to 100 nM.

Question: With C[C@@H](NC(=O)[C@H](O)[C@@H](O)C(=O)N1C[C@H]2CNC[C@H]2C1)c1ccc(-n2cccn2)cc1 [Compound 2424] as the molecule, how does the Ki read?
Answer: The Ki was 100 to 1000 nM.

Question: How did the Ki turn out when C[C@@H](NC(=O)[C@H](O)[C@@H](O)C(=O)N1CCCc2ccccc21)c1ccc(-n2cccn2)cc1 [Compound 2421] was run?
Answer: The Ki was 100 to 1000 nM.

Question: For CNc1nc([C@H]2CC(F)(F)CN2C(=O)[C@H](O)[C@@H](O)C(=O)N[C@H](C)c2ccc(-n3cccn3)cc2)cs1 [Compound 2567], which Ki is on record?
Answer: Its Ki is less than 20 nM.

Question: Which Ki does the source give for O=C(NCC1CCN(c2ccc(F)cc2OCC(F)(F)F)CC1)[C@H](O)[C@@H](O)C(=O)N1CCCC1 [Compound 2142] here?
Answer: Its Ki is 20 to 100 nM.

Question: O=C(NCC1CCN(c2ccc(F)cc2Br)CC1)[C@H](O)[C@@H](O)C(=O)N1Cc2ccccc2C1 [Compound 2139] was tested. Which Ki did it give?
Answer: Its Ki is less than 20 nM.

Question: With CCOC(=O)c1cccn2cc([C@H]3CCCN3C(=O)[C@H](O)[C@@H](O)C(=O)N[C@H](C)c3ccc(-n4cccn4)cc3)nc12 [Compound 2508] as the molecule, how does the Ki read?
Answer: The Ki was 20 to 100 nM.

Question: With C[C@@H](NC(=O)[C@H](O)[C@@H](O)C(=O)N(C)C1Cc2ccccc2C1)c1ccc(-n2cccn2)cc1 [Compound 2489] as the molecule, how does the Ki read?
Answer: Its Ki is 20 to 100 nM.

Question: For C[C@@H](NC(=O)[C@H](O)[C@@H](O)C(=O)N1CCN(c2ccccc2)C(=O)C1)c1ccc(-n2cccn2)cc1 [Compound 2425], which Ki is on record?
Answer: The Ki was 100 to 1000 nM.

Question: CCOc1cc(F)ccc1-c1ccc(CNC(=O)[C@H](O)[C@@H](O)C(=O)N2Cc3ccncc3C2)cc1 [Compound 2042] was tested. Which Ki did it give?
Answer: Its Ki is less than 20 nM.

Question: With C[C@@H](NC(=O)[C@H](O)[C@@H](O)C(=O)N1CCCN1c1ccccc1)c1ccc(-n2cccn2)cc1 [Compound 2496] as the molecule, how does the Ki read?
Answer: Its Ki is 100 to 1000 nM.

Question: CO[C@@H](C(=O)NCc1ccc(-c2ccc(F)cc2OCCC(C)(C)C)cc1)[C@@H](O)C(=O)N1Cc2cccnc2C1 [Compound 2475] was tested. Which Ki did it give?
Answer: The Ki was 20 to 100 nM.

Same assay, conditions: TACE, representative compounds, numeric values; read-out: Ki

Question: CCNc1nc([C@@H]2c3ccccc3CN2C(=O)[C@H](O)[C@@H](O)C(=O)N[C@H](C)c2ccc(-n3cccn3)cc2)cs1 [drawing 1307] was tested. Which Ki did it give?
Answer: Its Ki is 0.89 nM.

Question: Which Ki does the source give for C[C@@H](NC(=O)[C@](C)(O)[C@@H](O)C(=O)N1CCCC1(C)c1cccc(Cl)c1)c1ccc(-n2cccn2)cc1 (stereo partly shown) [drawing 1303] here?
Answer: The Ki was 0.75 nM.

Question: For CNc1nc([C@H]2c3ccccc3CCN2C(=O)[C@H](O)[C@@H](O)C(=O)N[C@H](C)c2ccc(-n3cccn3)cc2)cs1 [drawing 1310], which Ki is on record?
Answer: The Ki was 1.4 nM.

Question: How did the Ki turn out when C[C@@H](NC(=O)[C@H](O)[C@@H](O)C(=O)N1CC=C[C@@H]1c1cccc(Cl)c1)c1ccc(-n2cccn2)cc1 [drawing 1295] was run?
Answer: The Ki was 0.49 nM.

Question: Which Ki does the source give for Cc1cccc(C)c1Cc1csc(CNC(=O)[C@H](O)[C@@H](O)C(=O)N2CCCC2c2cccc(CN3CCCC3)c2)n1 (stereo partly shown) here?
Answer: The Ki was 1.4 nM.
